{"source": "patent US20160367623A1", "about": "“AGONISTS OF GUANYLATE CYCLASE USEFUL FOR THE TREATMENT OF GASTROINTESTINAL DISORDERS, INFLAMMATION, CANCER AND OTHER DISORDERS” (priority 2015, published 2016)", "test_system": "patients with chronic idiopathic constipation (CIC)", "test": "Second phase 3 CIC trial: change from baseline in stool consistency (BSFS)", "assay_type": "in vivo, human", "settings": "3 mg", "key": {"[1]": {"settings": "Post-Treatment Week 13, All Randomized (includes Duplicate Patients)"}, "[2]": {"settings": "Post-Treatment Week 13, ITT Population"}, "[3]": {"settings": "Post-Treatment Week 13, ITT Population-Excluding Duplicate Patients"}, "[4]": {"settings": "Post-Treatment Week 14, All Randomized (includes Duplicate Patients)"}, "[5]": {"settings": "Post-Treatment Week 14, ITT Population"}, "[6]": {"settings": "Post-Treatment Week 14, ITT Population-Excluding Duplicate Patients"}, "[7]": {"settings": "Week 1, All Randomized (includes Duplicate Patients)"}, "[8]": {"settings": "Week 1, ITT Population-Excluding Duplicate Patients"}, "[9]": {"settings": "Week 2, All Randomized (includes Duplicate Patients)"}, "[10]": {"settings": "Week 2, ITT Population-Excluding Duplicate Patients"}, "[11]": {"settings": "Week 3, All Randomized (includes Duplicate Patients)"}, "[12]": {"settings": "Week 3, ITT Population-Excluding Duplicate Patients"}, "[13]": {"settings": "Week 4, All Randomized (includes Duplicate Patients)"}, "[14]": {"settings": "Week 4, ITT Population-Excluding Duplicate Patients"}, "[15]": {"settings": "Week 5, All Randomized (includes Duplicate Patients)"}, "[16]": {"settings": "Week 5, ITT Population-Excluding Duplicate Patients"}, "[17]": {"settings": "Week 6, All Randomized (includes Duplicate Patients)"}, "[18]": {"settings": "Week 6, ITT Population-Excluding Duplicate Patients"}}, "note": "Bridge positions count the residues as written; N and C are the ends. Ends that are not written are not given here."}
{"substance": "Asn^1-Asp^2-Glu^3-Cys^4-Glu^5-Leu^6-Cys^7-Val^8-Asn^9-Val^10-Ala^11-Cys^12-Thr^13-Gly^14-Cys^15-Leu^16 (NDECELCVNVACTGCL; disulfide 4-12, 7-15) [Plecanatide, uroguanylin analogue, guanylate cyclase-C agonist; (C4:C12, C7:C15) bicycle peptide]", "values": [{"measurement": "Change from Baseline in Stool Consistency, Difference from Placebo", "setting": "[1]", "result": 0.24}, {"measurement": "Change from Baseline in Stool Consistency, LS Mean (SE)", "setting": "[1]", "result": "1.23 (0.069)"}, {"measurement": "Change from Baseline in Stool Consistency, Mean (SD)", "setting": "[1]", "result": "1.27 (1.358)"}, {"measurement": "Change from Baseline in Stool Consistency, Difference from Placebo", "setting": "[2]", "result": 0.23}, {"measurement": "Change from Baseline in Stool Consistency, LS Mean (SE)", "setting": "[2]", "result": "1.22 (0.071)"}, {"measurement": "Change from Baseline in Stool Consistency, Mean (SD)", "setting": "[2]", "result": "1.25 (1.368)"}, {"measurement": "Change from Baseline in Stool Consistency, Difference from Placebo", "setting": "[3]", "result": 0.23}, {"measurement": "Change from Baseline in Stool Consistency, LS Mean (SE)", "setting": "[3]", "result": "1.22 (0.072)"}, {"measurement": "Change from Baseline in Stool Consistency, Mean (SD)", "setting": "[3]", "result": "1.25 (1.374)"}, {"measurement": "Change from Baseline in Stool Consistency, Difference from Placebo", "setting": "[4]", "result": 0.15}, {"measurement": "Change from Baseline in Stool Consistency, LS Mean (SE)", "setting": "[4]", "result": "1.14 (0.071)"}, {"measurement": "Change from Baseline in Stool Consistency, Mean (SD)", "setting": "[4]", "result": "1.19 (1.393)"}, {"measurement": "Change from Baseline in Stool Consistency, Difference from Placebo", "setting": "[5]", "result": 0.14}, {"measurement": "Change from Baseline in Stool Consistency, LS Mean (SE)", "setting": "[5]", "result": "1.15 (0.073)"}, {"measurement": "Change from Baseline in Stool Consistency, Mean (SD)", "setting": "[5]", "result": "1.19 (1.402)"}, {"measurement": "Change from Baseline in Stool Consistency, Difference from Placebo", "setting": "[6]", "result": 0.14}, {"measurement": "Change from Baseline in Stool Consistency, LS Mean (SE)", "setting": "[6]", "result": "1.15 (0.074)"}, {"measurement": "Change from Baseline in Stool Consistency, Mean (SD)", "setting": "[6]", "result": "1.18 (1.408)"}, {"measurement": "Change from Baseline in Stool Consistency, Difference from Placebo", "setting": "[7]", "result": 0.68}, {"measurement": "Change from Baseline in Stool Consistency, LS Mean (SE)", "setting": "[7]", "result": "1.26 (0.070)"}, {"measurement": "Change from Baseline in Stool Consistency, Mean (SD)", "setting": "[7]", "result": "1.38 (1.464)"}, {"measurement": "Change from Baseline in Stool Consistency, Difference from Placebo", "setting": "Week 1, ITT Population", "result": 0.68}, {"measurement": "Change from Baseline in Stool Consistency, LS Mean (SE)", "setting": "Week 1, ITT Population", "result": "1.28 (0.072)"}, {"measurement": "Change from Baseline in Stool Consistency, Mean (SD)", "setting": "Week 1, ITT Population", "result": "1.39 (1.479)"}, {"measurement": "Change from Baseline in Stool Consistency, Difference from Placebo", "setting": "[8]", "result": 0.69}, {"measurement": "Change from Baseline in Stool Consistency, LS Mean (SE)", "setting": "[8]", "result": "1.30 (0.073)"}, {"measurement": "Change from Baseline in Stool Consistency, Mean (SD)", "setting": "[8]", "result": "1.39 (1.469)"}, {"measurement": "Change from Baseline in Stool Consistency, Difference from Placebo", "setting": "[9]", "result": 0.66}, {"measurement": "Change from Baseline in Stool Consistency, LS Mean (SE)", "setting": "[9]", "result": "1.35 (0.070)"}, {"measurement": "Change from Baseline in Stool Consistency, Mean (SD)", "setting": "[9]", "result": "1.46 (1.566)"}, {"measurement": "Change from Baseline in Stool Consistency, Difference from Placebo", "setting": "Week 2, ITT Population", "result": 0.66}, {"measurement": "Change from Baseline in Stool Consistency, LS Mean (SE)", "setting": "Week 2, ITT Population", "result": "1.38 (0.073)"}, {"measurement": "Change from Baseline in Stool Consistency, Mean (SD)", "setting": "Week 2, ITT Population", "result": "1.46 (1.583)"}, {"measurement": "Change from Baseline in Stool Consistency, Difference from Placebo", "setting": "[10]", "result": 0.65}, {"measurement": "Change from Baseline in Stool Consistency, LS Mean (SE)", "setting": "[10]", "result": "1.39 (0.073)"}, {"measurement": "Change from Baseline in Stool Consistency, Mean (SD)", "setting": "[10]", "result": "1.46 (1.578)"}, {"measurement": "Change from Baseline in Stool Consistency, Difference from Placebo", "setting": "[11]", "result": 0.52}, {"measurement": "Change from Baseline in Stool Consistency, LS Mean (SE)", "setting": "[11]", "result": "1.41 (0.070)"}, {"measurement": "Change from Baseline in Stool Consistency, Mean (SD)", "setting": "[11]", "result": "1.52 (1.570)"}, {"measurement": "Change from Baseline in Stool Consistency, Difference from Placebo", "setting": "Week 3, ITT Population", "result": 0.51}, {"measurement": "Change from Baseline in Stool Consistency, LS Mean (SE)", "setting": "Week 3, ITT Population", "result": "1.41 (0.073)"}, {"measurement": "Change from Baseline in Stool Consistency, Mean (SD)", "setting": "Week 3, ITT Population", "result": "1.51 (1.573)"}, {"measurement": "Change from Baseline in Stool Consistency, Difference from Placebo", "setting": "[12]", "result": 0.51}, {"measurement": "Change from Baseline in Stool Consistency, LS Mean (SE)", "setting": "[12]", "result": "1.42 (0.074)"}, {"measurement": "Change from Baseline in Stool Consistency, Mean (SD)", "setting": "[12]", "result": "1.52 (1.578)"}, {"measurement": "Change from Baseline in Stool Consistency, Difference from Placebo", "setting": "[13]", "result": 0.58}, {"measurement": "Change from Baseline in Stool Consistency, LS Mean (SE)", "setting": "[13]", "result": "1.45 (0.071)"}, {"measurement": "Change from Baseline in Stool Consistency, Mean (SD)", "setting": "[13]", "result": "1.56 (1.509)"}, {"measurement": "Change from Baseline in Stool Consistency, Difference from Placebo", "setting": "Week 4, ITT Population", "result": 0.55}, {"measurement": "Change from Baseline in Stool Consistency, LS Mean (SE)", "setting": "Week 4, ITT Population", "result": "1.45 (0.073)"}, {"measurement": "Change from Baseline in Stool Consistency, Mean (SD)", "setting": "Week 4, ITT Population", "result": "1.55 (1.494)"}, {"measurement": "Change from Baseline in Stool Consistency, Difference from Placebo", "setting": "[14]", "result": 0.54}, {"measurement": "Change from Baseline in Stool Consistency, LS Mean (SE)", "setting": "[14]", "result": "1.45 (0.074)"}, {"measurement": "Change from Baseline in Stool Consistency, Mean (SD)", "setting": "[14]", "result": "1.56 (1.504)"}, {"measurement": "Change from Baseline in Stool Consistency, Difference from Placebo", "setting": "[15]", "result": 0.68}, {"measurement": "Change from Baseline in Stool Consistency, LS Mean (SE)", "setting": "[15]", "result": "1.53 (0.071)"}, {"measurement": "Change from Baseline in Stool Consistency, Difference from Placebo", "setting": "Week 5, ITT Population", "result": 0.68}, {"measurement": "Change from Baseline in Stool Consistency, LS Mean (SE)", "setting": "Week 5, ITT Population", "result": "1.55 (0.074)"}, {"measurement": "Change from Baseline in Stool Consistency, Mean (SD)", "setting": "Week 5, ITT Population", "result": "1.69 (1.462)"}, {"measurement": "Change from Baseline in Stool Consistency, Difference from Placebo", "setting": "[16]", "result": 0.67}, {"measurement": "Change from Baseline in Stool Consistency, LS Mean (SE)", "setting": "[16]", "result": "1.56 (0.075)"}, {"measurement": "Change from Baseline in Stool Consistency, Mean (SD)", "setting": "[16]", "result": "1.70 (1.469)"}, {"measurement": "Change from Baseline in Stool Consistency, Difference from Placebo", "setting": "[17]", "result": 0.74}, {"measurement": "Change from Baseline in Stool Consistency, LS Mean (SE)", "setting": "[17]", "result": "1.55 (0.072)"}, {"measurement": "Change from Baseline in Stool Consistency, Difference from Placebo", "setting": "Week 6, ITT Population", "result": 0.74}, {"measurement": "Change from Baseline in Stool Consistency, LS Mean (SE)", "setting": "Week 6, ITT Population", "result": "1.56 (0.074)"}, {"measurement": "Change from Baseline in Stool Consistency, Mean (SD)", "setting": "Week 6, ITT Population", "result": "1.67 (1.533)"}, {"measurement": "Change from Baseline in Stool Consistency, Difference from Placebo", "setting": "[18]", "result": 0.73}, {"measurement": "Change from Baseline in Stool Consistency, LS Mean (SE)", "setting": "[18]", "result": "1.56 (0.075)"}, {"measurement": "Change from Baseline in Stool Consistency, Mean (SD)", "setting": "[18]", "result": "1.67 (1.529)"}]}
